Source: ChEMBL document CHEMBL1201862, “PubChem BioAssay data set” (2004)
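Compound exposure: 48 hours, 5 concentrations, 96-well plates. GI50 = concentration required for 50% inhibition of growth.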 Activity calls are given as the source filed them. No stated cut-off is given here; in the data, active = GI50 up to about 1.1 µM and inactive = higher.

What was measured:
Assay in all cases: DTP human tumour cell line panel, 48 h
SNB-75 = test system: SNB-75
SR = test system: SR
MDA-MB-435 = test system: MDA-MB-435
HL-60 = test system: HL-60
DU-145 = test system: DU-145
NCI-H522 = test system: NCI-H522
MCF7 = test system: MCF7
U-251 = test system: U-251
HT-29 = test system: HT-29
UACC-257 = test system: UACC-257
Malme-3M = test system: Malme-3M
786-0 = test system: 786-0
MDA-N = test system: MDA-N
KM12 = test system: KM12
SF-295 = test system: SF-295
SK-MEL-2 = test system: SK-MEL-2
HCT-15 = test system: HCT-15
A549 = test system: A549
HCC 2998 = test system: HCC 2998
M14 = test system: M14

Measured: GI50

Cn1c(=O)c2nc(CCCCc3nc4ccccc4[nH]3)[nH]c2n(C)c1=O
inactive: SNB-75 30.1 µM | SR > 100 µM | MDA-MB-435 > 100 µM | HL-60 > 100 µM | DU-145 > 100 µM | NCI-H522 > 100 µM | MCF7 > 100 µM | U-251 > 100 µM | HT-29 > 100 µM | UACC-257 > 100 µM | Malme-3M > 100 µM | 786-0 > 100 µM | MDA-N > 100 µM | KM12 > 100 µM | SF-295 > 100 µM | SK-MEL-2 > 100 µM | A549 > 100 µM | HCC 2998 > 100 µM | M14 > 100 µM
> 100 µM: HCT-15

Cc1cc(=O)n2nc(SCc3ccccc3)sc2n1
> 100 µM: HCT-15
inactive: SNB-75 > 100 µM | SR > 100 µM | MDA-MB-435 66.4 µM | HL-60 > 100 µM | DU-145 > 100 µM | NCI-H522 > 100 µM | MCF7 > 100 µM | U-251 > 100 µM | HT-29 > 100 µM | Malme-3M > 100 µM | 786-0 > 100 µM | MDA-N > 100 µM | KM12 > 100 µM | SF-295 > 100 µM | A549 > 100 µM | HCC 2998 > 100 µM | M14 > 100 µM

CCSc1s/c(=N/c2ccc(/N=c3\sc(C)c(SC)s3)cc2)sc1-c1ccc(C)cc1
> 100 µM: HCT-15
inactive: SNB-75 32 µM | SR > 100 µM | MDA-MB-435 > 100 µM | HL-60 > 100 µM | DU-145 > 100 µM | NCI-H522 > 100 µM | MCF7 > 100 µM | U-251 > 100 µM | HT-29 > 100 µM | UACC-257 > 100 µM | Malme-3M > 100 µM | 786-0 > 100 µM | MDA-N > 100 µM | KM12 > 100 µM | SF-295 > 100 µM | SK-MEL-2 > 100 µM | A549 > 100 µM | HCC 2998 > 100 µM | M14 > 100 µM

Cc1ccc2c(c1C)CC1(Cc3ccc(C)c(C)c3C1=O)C2=O (stereo unspecified)
inactive: SNB-75 67.6 µM | SR > 100 µM | MDA-MB-435 > 100 µM | HL-60 94.6 µM | DU-145 > 100 µM | NCI-H522 > 100 µM | MCF7 66.8 µM | U-251 44 µM | UACC-257 > 100 µM | Malme-3M > 100 µM | 786-0 39.4 µM | MDA-N > 100 µM | KM12 > 100 µM | SF-295 30.3 µM | SK-MEL-2 > 100 µM | A549 35.7 µM | HCC 2998 > 100 µM | M14 > 100 µM
> 100 µM: HCT-15

CCOC(=O)c1cc(C#N)[nH]c1-c1ccsc1
29.1 µM: HCT-15
inactive: SNB-75 22.5 µM | SR 11.8 µM | MDA-MB-435 23.1 µM | HL-60 16.4 µM | DU-145 24.3 µM | NCI-H522 30.3 µM | MCF7 14.3 µM | U-251 25.8 µM | HT-29 28.8 µM | UACC-257 36.2 µM | Malme-3M 37.4 µM | 786-0 44 µM | MDA-N 33.9 µM | KM12 25.1 µM | SF-295 38 µM | SK-MEL-2 46.7 µM | A549 31.7 µM | HCC 2998 29.8 µM | M14 41.7 µM

O=C1C(C(O)(C(F)(F)Cl)C(F)(F)Cl)CCC1C(O)(C(F)(F)Cl)C(F)(F)Cl (stereo unspecified)
inactive: SNB-75 3.7 µM | SR > 10 µM | MDA-MB-435 > 10 µM | HL-60 > 10 µM | DU-145 3.81 µM | NCI-H522 4.45 µM | MCF7 3.48 µM | U-251 4.4 µM | HT-29 3.26 µM | UACC-257 2.79 µM | Malme-3M 5.47 µM | 786-0 > 10 µM | MDA-N > 10 µM | KM12 4.45 µM | SF-295 2.58 µM | SK-MEL-2 2.3 µM | A549 9.57 µM | HCC 2998 3.42 µM | M14 7.78 µM
3.91 µM: HCT-15

OC1CC2CCCN(CCc3c1[nH]c1ccccc31)C2 (stereo unspecified)
inactive: SNB-75 > 100 µM | SR 97.1 µM | MDA-MB-435 > 100 µM | HL-60 > 100 µM | DU-145 > 100 µM | NCI-H522 > 100 µM | MCF7 > 100 µM | U-251 > 100 µM | HT-29 > 100 µM | UACC-257 67.6 µM | Malme-3M > 100 µM | 786-0 > 100 µM | MDA-N > 100 µM | KM12 > 100 µM | SF-295 > 100 µM | SK-MEL-2 > 100 µM | A549 > 100 µM | HCC 2998 > 100 µM
> 100 µM: HCT-15

O=C(Nc1ccc2ncccc2c1)c1cc2c(cc1Cl)Sc1nccn1S2(=O)=O
inactive: SNB-75 15.3 µM | SR 4.36 µM | MDA-MB-435 4 µM | HL-60 9.27 µM | DU-145 14.3 µM | NCI-H522 8.97 µM | MCF7 6.12 µM | U-251 13.6 µM | HT-29 16.7 µM | UACC-257 20.1 µM | Malme-3M 16.7 µM | 786-0 13.6 µM | MDA-N 5.56 µM | KM12 6.4 µM | SF-295 15.9 µM | SK-MEL-2 17.3 µM | A549 17.5 µM | HCC 2998 14.7 µM | M14 15.1 µM
11 µM: HCT-15

Cc1cc([N+](=O)[O-])ccc1/N=N/C(=O)NNc1ccc([N+](=O)[O-])cc1C
inactive: SNB-75 17 µM | SR 20.7 µM | MDA-MB-435 12.8 µM | HL-60 20 µM | DU-145 16.5 µM | NCI-H522 25 µM | MCF7 3.18 µM | U-251 17.5 µM | HT-29 27 µM | UACC-257 20 µM | Malme-3M 17.3 µM | 786-0 16.9 µM | MDA-N 15.7 µM | SK-MEL-2 21 µM | A549 15.8 µM | HCC 2998 16 µM | M14 13.6 µM
19.1 µM: HCT-15

CC(=O)O[C@H]1C(=O)[C@@]2(C)[C@H]([C@H](OC(=O)c3ccccc3)[C@]3(O)C[C@H](OC(=O)[C@H](O)[C@@H](NC(=O)c4ccccc4)c4cccc(N(C)C)c4)C(C)=C1C3(C)C)[C@]1(OC(C)=O)CO[C@@H]1C[C@@H]2O
active: SNB-75 1.01 µM | SR 0.0322 µM | MDA-MB-435 0.00893 µM | HL-60 0.0122 µM | DU-145 0.302 µM | NCI-H522 0.0533 µM | MCF7 0.0164 µM | U-251 0.0608 µM | HT-29 0.0219 µM | UACC-257 0.714 µM | 786-0 0.389 µM | MDA-N 0.00766 µM | KM12 0.0198 µM | SF-295 0.142 µM | SK-MEL-2 0.0301 µM | A549 0.314 µM | HCC 2998 0.0315 µM | M14 0.098 µM
1.79 µM: HCT-15

COc1ccc(Oc2cnn(C(Br)(Br)C(C)=O)c(=O)c2Br)cc1
inactive: SNB-75 15 µM | SR 1.69 µM | MDA-MB-435 10 µM | HL-60 1.97 µM | DU-145 19.2 µM | NCI-H522 4.56 µM | MCF7 15.4 µM | U-251 13.9 µM | HT-29 15.3 µM | UACC-257 15.1 µM | Malme-3M 17.1 µM | 786-0 13.9 µM | MDA-N 10.3 µM | KM12 14.8 µM | SF-295 18.2 µM | SK-MEL-2 16.3 µM | A549 24 µM | HCC 2998 16.8 µM | M14 13.9 µM
16 µM: HCT-15

CC1(C)OCC(C2OC(=O)C(OCc3ccccc3)=C2OCc2ccccc2)O1 (stereo unspecified)
inactive: SNB-75 49.9 µM | SR 28.4 µM | MDA-MB-435 26.9 µM | HL-60 22.9 µM | DU-145 81.1 µM | NCI-H522 23.3 µM | MCF7 50.5 µM | U-251 39.2 µM | HT-29 51.4 µM | UACC-257 29.9 µM | Malme-3M 29.9 µM | 786-0 45 µM | MDA-N 38 µM | KM12 32 µM | SF-295 34 µM | SK-MEL-2 23.1 µM | A549 32.9 µM | HCC 2998 36.8 µM | M14 45.5 µM
30.9 µM: HCT-15

Cn1c2c(c3ccccc31)CCN1C(=O)CCC21 (stereo unspecified)
inactive: SNB-75 > 10 µM | SR > 10 µM | MDA-MB-435 > 10 µM | HL-60 > 10 µM | DU-145 > 10 µM | NCI-H522 > 10 µM | MCF7 > 10 µM | U-251 > 10 µM | HT-29 > 10 µM | UACC-257 > 10 µM | Malme-3M > 10 µM | 786-0 > 10 µM | MDA-N > 10 µM | KM12 > 10 µM | SF-295 > 10 µM | SK-MEL-2 > 10 µM | HCC 2998 > 10 µM | M14 > 10 µM
> 10 µM: HCT-15

COc1ccc(OC)c(-c2cc(=O)c3c(OC)c(OC)c(OC)c(OC)c3o2)c1
inactive: SNB-75 46.8 µM | SR 6.17 µM | MDA-MB-435 28 µM | HL-60 14.2 µM | DU-145 25.8 µM | NCI-H522 20 µM | MCF7 14.5 µM | U-251 28.4 µM | HT-29 33.6 µM | UACC-257 36.2 µM | Malme-3M 24.3 µM | 786-0 27.4 µM | MDA-N 35.9 µM | SF-295 18.7 µM | SK-MEL-2 20 µM | A549 28.5 µM | HCC 2998 28.6 µM | M14 36.1 µM
21.3 µM: HCT-15
